Source: US20230146675A1, “PYRIMIDO[5,4-d]PYRIMIDINE DERIVATIVES AS ENT INHIBITORS FOR THE TREATMENT OF CANCERS, AND COMBINATION THEREOF WITH ADENOSINE RECEPTOR ANTAGONISTS” (ITEOS BELGIUM SA, priority 2020, published 2023)

Molecular target: T1, human ENT1 (Homo sapiens, UniProt Q99808)
T1 sequence (Q99808 1-456): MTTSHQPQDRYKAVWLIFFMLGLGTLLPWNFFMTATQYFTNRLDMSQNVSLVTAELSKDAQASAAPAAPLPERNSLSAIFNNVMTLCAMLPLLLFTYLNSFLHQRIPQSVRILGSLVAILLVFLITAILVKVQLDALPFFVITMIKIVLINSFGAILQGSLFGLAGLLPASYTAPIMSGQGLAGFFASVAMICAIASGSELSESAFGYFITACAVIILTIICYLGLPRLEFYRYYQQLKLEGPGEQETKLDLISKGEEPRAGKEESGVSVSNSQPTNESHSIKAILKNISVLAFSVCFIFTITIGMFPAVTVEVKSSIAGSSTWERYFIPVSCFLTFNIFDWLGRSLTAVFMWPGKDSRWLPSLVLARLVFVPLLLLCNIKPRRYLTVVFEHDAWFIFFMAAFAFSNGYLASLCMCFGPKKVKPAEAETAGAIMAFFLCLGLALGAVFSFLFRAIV
Assay: ENT1 binding assay (competition with Sahenta-DY647 on JAR cells)
Parameters: JAR cells expressing ENT1 were bought from ATCC; host or cells: JAR cells
Settings: binned IC50
How it was run: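 JAR cells were incubated with test compounds and the fluorescent ligand Sahenta-DY647 in competition. Plates were washed twice by centrifugation (4 min, 400 rcf, 4 °C). Binding potency was derived from the final fluorescence.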

IC50	SMILES
100 to 500 nM	COCCN(CCOC)c1nc(N2CCC(OC)CC2)c2nc(N(CCOC)CCOC)nc(NCC3CCOCC3)c2n1 [Compound 46, N2,N2,N6,N6-tetrakis(2-methoxyethyl)-8-(4-methoxypiperidin-1-yl)-N4-((tetrahydro-2H-pyran-4-yl)methyl)pyrimido[5,4-d]pyrimidine-2,4,6-triamine]
100 to 500 nM	COCCN(CCOC)c1nc(N2CCC(F)(F)C2)c2nc(N(CCOC)CCOC)nc(N3CCC(OC)CC3)c2n1 [Compound 109, 4-(3,3-difluoropyrrolidin-1-yl)-N2,N2,N6,N6-tetrakis(2-methoxyethyl)-8-(4-methoxypiperidin-1-yl)pyrimido[5,4-d]pyrimidine-2,6-diamine]
< 100 nM	COCCN(CCCS(C)(=O)=O)c1nc(N2CCN(C)C(=O)C2)c2nc(N(CCOC)CCOC)nc(N3CCC(OC)CC3)c2n1 [Compound 289, 4-(6-(bis(2-methoxyethyl)amino)-2-((2-methoxyethyl)(3-(methylsulfonyl)propyl)amino)-8-(4-methoxypiperidin-1-yl)pyrimido[5,4-d]pyrimidin-4-yl)-1-methylpiperazin-2-one]
500 to 1000 nM	COC1CCN(c2nc(N(CCO)CCO)nc3c(N4CCN(C)C(=O)C4)nc(N(CCO)CCO)nc23)CC1 [Compound 321, 4-(2,6-bis(bis(2-hydroxyethyl)amino)-8-(4-methoxypiperidin-1-yl)pyrimido[5,4-d]pyrimidin-4-yl)-1-methylpiperazin-2-one]
500 to 1000 nM	CCNc1nc(N(CCOC)CCOC)nc2c(N3CCC(OC)CC3)nc(N(CCOC)CCOC)nc12 [Compound 126, N4-ethyl-N2,N2,N6,N6-tetrakis(2-methoxyethyl)-8-(4-methoxypiperidin-1-yl)pyrimido[5,4-d]pyrimidine-2,4,6-triamine]
< 100 nM	COCCN(Cc1cc(OC)c(OC)c(OC)c1)c1nc(N2CCN(C)C(=O)C2)c2nc(N(CCOC)CCOC)nc(N3CCC(OC)CC3)c2n1 [Compound 268, 4-(6-(bis(2-methoxyethyl)amino)-2-((2-methoxyethyl)(3,4,5-trimethoxybenzyl)amino)-8-(4-methoxypiperidin-1-yl)pyrimido[5,4-d]pyrimidin-4-yl)-1-methylpiperazin-2-one]
< 100 nM	COCCN(CCOC)c1nc(N2CCn3ncnc3C2)c2nc(N(CCOC)CCOC)nc(N3CCC(OC)CC3)c2n1 [Compound 116, 4-(5,6-dihydro-[1,2,4]triazolo[1,5-a]pyrazin-7(8H)-yl)-N2,N2,N6,N6-tetrakis(2-methoxyethyl)-8-(4-methoxypiperidin-1-yl)pyrimido[5,4-d]pyrimidine-2,6-diamine]
100 to 500 nM	COCCN(CCOC)c1nc(N2CCC(C)C2)c2nc(N(CCOC)CCOC)nc(N3CCC(OC)CC3)c2n1 (stereo not shown) [Compound 91, N2,N2,N6,N6-tetrakis(2-methoxyethyl)-4-(4-methoxypiperidin-1-yl)-8-(3-methylpyrrolidin-1-yl)pyrimido[5,4-d]pyrimidine-2,6-diamine]
500 to 1000 nM	COCCN(CCOC)c1nc(N2CCN(c3ncn(C)n3)CC2)c2nc(N(CCOC)CCOC)nc(N(C)Cc3ccc(F)c(C#N)c3)c2n1 [Compound 245, 5-(((2,6-bis(bis(2-methoxyethyl)amino)-8-(4-(1-methyl-1H-1,2,4-triazol-3-yl)piperazin-1-yl)pyrimido[5,4-d]pyrimidin-4-yl)(methyl)amino)methyl)-2-fluorobenzonitrile]
< 100 nM	COCCN(CCOC)c1nc(N2CCN(c3ncn(C)n3)CC2)c2nc(N(CCOC)CCOC)nc(NCc3cccc(OC(F)(F)F)c3)c2n1 [Compound 223, N2,N2,N6,N6-tetrakis(2-methoxyethyl)-8-(4-(1-methyl-1H-1,2,4-triazol-3-yl)piperazin-1-yl)-N4-(3-(trifluoromethoxy)benzyl)pyrimido[5,4-d]pyrimidine-2,4,6-triamine]
100 to 500 nM	COCCN(CCOC)c1nc(N2CCC(OC)CC2)c2nc(N(CCOC)CCOC)nc(OCc3cncc(C#N)c3)c2n1 [Compound 158, 5-(((2,6-bis(bis(2-methoxyethyl)amino)-8-(4-methoxypiperidin-1-yl)pyrimido[5,4-d]pyrimidin-4-yl)oxy)methyl)nicotinonitrile]
500 to 1000 nM	COCCN(CCOC)c1nc(N2CC[C@@H](O)C2)c2nc(N(CCOC)CCOC)nc(N3CCC(OC)CC3)c2n1 [Compound 93, (R)-1-(2,6-bis(bis(2-methoxyethyl)amino)-8-(4-methoxypiperidin-1-yl)pyrimido[5,4-d]pyrimidin-4-yl)pyrrolidin-3-ol]
< 100 nM	CCCCNc1nc(N(CCOC)CCOC)nc2c(N3CCC(OC)CC3)nc(N(CCOC)CCOC)nc12 [Compound 54, N4-butyl-N2,N2,N6,N6-tetrakis(2-methoxyethyl)-8-(4-methoxypiperidin-1-yl)pyrimido[5,4-d]pyrimidine-2,4,6-triamine]
100 to 500 nM	COCCN(CCOC)c1nc(N2CCC(OC)CC2)c2nc(N(CCO)CCO)nc(N3CCc4oc(C)nc4C3)c2n1 [Compound 322, 2,2′-((6-(bis(2-methoxyethyl)amino)-8-(4-methoxypiperidin-1-yl)-4-(2-methyl-6,7-dihydrooxazolo[4,5-c]pyridin-5(4H)-yl)pyrimido[5,4-d]pyrimidin-2-yl)azanediyl)bis(ethan-1-ol)]
100 to 500 nM	COCCN(CCOC)c1nc(N2CCN(C)C(=O)C2)c2nc(N(CCOC)CCOC)nc(NCc3cccc(C(N)=O)c3)c2n1 [Compound 203, 3-(((2,6-bis(bis(2-methoxyethyl)amino)-8-(4-methyl-3-oxopiperazin-1-yl)pyrimido[5,4-d]pyrimidin-4-yl)amino)methyl)benzamide]
100 to 500 nM	COCCN(CCOC)c1nc(N2CCN(C)C(=O)C2)c2nc(N(CCOC)CCOC)nc(NCC(C)C)c2n1 [Compound 215, 4-(2,6-bis(bis(2-methoxyethyl)amino)-8-(isobutylamino)pyrimido[5,4-d]pyrimidin-4-yl)-1-methylpiperazin-2-one]
100 to 500 nM	COCCN(CCOC)c1nc(N2CC(O)(C(F)(F)F)C2)c2nc(N(CCOC)CCOC)nc(N3CCn4ncnc4C3)c2n1 [Compound 193, 1-(2,6-bis(bis(2-methoxyethyl)amino)-8-(5,6-dihydro-[1,2,4]triazolo[1,5-a]pyrazin-7(8H)-yl)pyrimido[5,4-d]pyrimidin-4-yl)-3-(trifluoromethyl)azetidin-3-ol]
100 to 500 nM	COCCN(CCOC)c1nc(N2CCN(C)C(=O)C2)c2nc(N(CCOC)CCn3ccnc3)nc(N3CCC(OC)CC3)c2n1 [Compound 286, 4-(6-((2-(1H-imidazol-1-yl)ethyl)(2-methoxyethyl)amino)-2-(bis(2-methoxyethyl)amino)-8-(4-methoxypiperidin-1-yl)pyrimido[5,4-d]pyrimidin-4-yl)-1-methylpiperazin-2-one]
500 to 1000 nM	COCCN(CCOC)c1nc(N2CCN(c3ncccc3N)CC2)c2nc(N(CCOC)CCOC)nc(N3CCC(OC)CC3)c2n1 [Compound 121, 4-(4-(3-aminopyridin-2-yl)piperazin-1-yl)-N2,N2,N6,N6-tetrakis(2-methoxyethyl)-8-(4-methoxypiperidin-1-yl)pyrimido[5,4-d]pyrimidine-2,6-diamine]
100 to 500 nM	COCCN(CCOC)c1nc(N2CCC(OC)CC2)c2nc(N(CCOC)CCOC)nc(NCc3ccc(C#N)cc3)c2n1 [Compound 140, 4-(((2,6-bis(bis(2-methoxyethyl)amino)-8-(4-methoxypiperidin-1-yl)pyrimido[5,4-d]pyrimidin-4-yl)amino)methyl)benzonitrile]
100 to 500 nM	COCCN(CCOC)c1nc(N2CCC(OC)CC2)c2nc(N(CCOC)CCOC)nc(NCc3cccc(-n4cccn4)c3)c2n1 [Compound 146, N4-(3-(1H-pyrazol-1-yl)benzyl)-N2,N2,N6,N6-tetrakis(2-methoxyethyl)-8-(4-methoxypiperidin-1-yl)pyrimido[5,4-d]pyrimidine-2,4,6-triamine]
100 to 500 nM	COCCN(CCOC)c1nc(N2CCC(OC)CC2)c2nc(N3CCn4ccnc4C3)nc(N3CCN(C)C(=O)C3)c2n1 [Compound 295, 4-(6-(bis(2-methoxyethyl)amino)-2-(5,6-dihydroimidazo[1,2-a]pyrazin-7(8H)-yl)-8-(4-methoxypiperidin-1-yl)pyrimido[5,4-d]pyrimidin-4-yl)-1-methylpiperazin-2-one]
100 to 500 nM	COCCN(CCOC)c1nc(N2CCC(OC)CC2)c2nc(N(CCO)CCO)nc(N3CCN(C)C(=O)C3)c2n1 [Compound 270, 4-(2-(bis(2-hydroxyethyl)amino)-6-(bis(2-methoxyethyl)amino)-8-(4-methoxypiperidin-1-yl)pyrimido[5,4-d]pyrimidin-4-yl)-1-methylpiperazin-2-one]
< 100 nM	COCCN(CCOC)c1nc(N2CCCCC2)c2nc(N(CCO)CCO)nc(N3CCN(c4nccs4)CC3)c2n1 [Compound 39, 2,2′-((6-(bis(2-methoxyethyl)amino)-8-(piperidin-1-yl)-4-(4-(thiazol-2-yl)piperazin-1-yl)pyrimido[5,4-d]pyrimidin-2-yl)azanediyl)diethanol]
100 to 500 nM	COCCN(CCOC)c1nc(N2CCN(c3ccc(C#N)cn3)CC2)c2nc(N(CCOC)CCOC)nc(N3CCC(OC)CC3)c2n1 [Compound 124, 6-(4-(2,6-bis(bis(2-methoxyethyl)amino)-8-(4-methoxypiperidin-1-yl)pyrimido[5,4-d]pyrimidin-4-yl)piperazin-1-yl)nicotinonitrile]
